Laboratory results from patent US8586588B2, “Aryl pyridazinone derivatives and their use as H3 receptor ligands” (Cephalon, Inc., priority 2006, dated 2013).
Where two headings read alike, the source gives them in different places. Blank lines part the entries; values can stand above or below the compound they belong to.

Columns and labels:
[1] = target: T1, rat histamine H3 receptor (Rattus norvegicus, UniProt Q9QYN8); assay: Rat H3 radioligand binding ([3H]-N-alpha-methylhistamine, CHO-A3 cell membranes, SPA); details: binding constant as letter class
T1 construct: encoding the entire 445-amino-acid rat histamine H3 receptor; expressed in transfected cells
T1 sequence (Q9QYN8 whole entry): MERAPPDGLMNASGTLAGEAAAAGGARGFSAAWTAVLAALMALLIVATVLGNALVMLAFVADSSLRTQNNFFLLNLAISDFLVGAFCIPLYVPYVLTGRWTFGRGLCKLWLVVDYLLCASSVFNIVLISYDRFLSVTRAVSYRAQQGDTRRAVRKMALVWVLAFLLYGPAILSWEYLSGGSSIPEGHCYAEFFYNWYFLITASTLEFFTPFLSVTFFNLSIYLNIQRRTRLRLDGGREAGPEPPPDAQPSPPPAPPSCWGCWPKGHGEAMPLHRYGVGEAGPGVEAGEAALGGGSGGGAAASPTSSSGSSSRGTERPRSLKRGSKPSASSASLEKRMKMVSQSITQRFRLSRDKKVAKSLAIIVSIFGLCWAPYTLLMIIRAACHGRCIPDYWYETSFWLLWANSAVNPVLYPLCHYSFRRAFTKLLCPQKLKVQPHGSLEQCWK
Description: (§1) This was engineered into the pIRES-neo3 mammalian expression vector, which was stably transfected into the CHO-A3 cell line (Euroscreen, Belgium), followed by clonal selection by limiting dilution. Cells were harvested and cell pellets were frozen (−80° C.). Cell pellets were resuspended in 5 mM Tris-HCl, pH 7.5 with […] and a cocktail of protease inhibitors (Complete Protease Inhibition Tablets, Roche Diagnostics). Cells were disrupted using a polytron cell homogenizer and the suspension was centrifuged at 1000×g for 10 minutes at 4° C. The pellet was discarded and the supernatant centrifuged at 40,000×g for 30 min at 4° C. This membrane pellet was washed in membrane buffer containing 50 mM Tris-HCl, pH 7.5 with 0.6 mM EDTA, 5 mM MgCl2 and protease inhibitors, recentrifuged as above and the final pellet resuspended in membrane buffer plus 250 mM sucrose and frozen at −80° C.
(§2) Membranes were resuspended in 50 mM Tris HCl (pH 7.4), 5 mM MgCl2, 0.1% BSA. The membrane suspensions (10 μg protein per well) were incubated in a 96 well microtiter plate with [^3H]-N-alpha-methylhistamine (approximately 1 nM final concentration), test compounds at various concentrations (0.01 nM-30 μM) and scintillation proximity beads (Perkin Elmer, FlashBlueGPCR Scintillating Beads) in a final volume of 80 μl for 4 hours at room temperature, protected from light. Non-specific binding was determined in the presence of 10 μM clobenpropit. Radioligand bound to receptor, and therefore in proximity to the scintillation beads, was measured using a MicroBeta scintillation counter.

human H3 receptor = target: T2, human H3 receptor (Homo sapiens, UniProt Q9Y5N1); assay: Human H3 radioligand binding ([3H]-N-alpha-methylhistamine, CHO cell membranes, SPA); details: binding constant as letter class
T2 construct: expressed in transfected cells
T2 sequence (Q9Y5N1 whole entry): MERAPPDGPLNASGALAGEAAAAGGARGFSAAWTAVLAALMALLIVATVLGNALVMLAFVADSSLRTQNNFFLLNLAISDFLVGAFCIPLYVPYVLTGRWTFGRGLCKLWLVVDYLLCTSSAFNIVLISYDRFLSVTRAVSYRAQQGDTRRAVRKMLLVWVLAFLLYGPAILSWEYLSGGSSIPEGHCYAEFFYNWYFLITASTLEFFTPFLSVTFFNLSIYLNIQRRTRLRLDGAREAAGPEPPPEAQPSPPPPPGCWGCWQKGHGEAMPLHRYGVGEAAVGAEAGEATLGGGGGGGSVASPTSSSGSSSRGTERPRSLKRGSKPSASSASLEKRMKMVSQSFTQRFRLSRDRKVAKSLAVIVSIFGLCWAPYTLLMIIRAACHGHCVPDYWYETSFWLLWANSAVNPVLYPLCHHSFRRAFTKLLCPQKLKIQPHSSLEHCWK
Description: as §1, with “Cell” for “This was engineered into the pIRES-neo3 mammalian expression vector, which was stably transfected into the CHO-A3 cell line (Euroscreen, Belgium), followed by clonal selection by limiting dilution. Cells were harvested and cell pellets were frozen (−80° C.). Cell”
as §2

Structure (SMILES): CC1CC(=O)NN=C1c1ccc(OCCCN2CCCCC2)cc1 (racemic) [Example 197, 5-Methyl-6-[4-(3-piperidin-1-yl-propoxy)-phenyl]-4,5-dihydro-2H-pyridazin-3-one]
Ki ([1]; Table B, read-out: rat H3 Ki): 0.1 to 100 nM | Ki (human H3 receptor; Table B): 0.1 to 100 nM

Structure (SMILES): C[C@@H]1CCCN1CCCOc1ccc(-c2nn(Cc3ccc(Cl)cc3)c(=O)c3ccccc23)cc1 [Example 54, 2-(4-Chloro-benzyl)-4-{4-[3-((R)-2-methyl-pyrrolidin-1-yl)-propoxy]-phenyl}-2H-phthalazin-1-one]
Ki ([1]; Table A, read-out: Rat H3 Ki): 0.1 to 100 nM | Ki (human H3 receptor; Table A): 0.1 to 100 nM

Structure (SMILES): O=C1NN=C(c2ccc(OC3CCN(C4CCC4)CC3)cc2)C2CCC12 (stereo not drawn) [Example 172, 5-[4-(1-Cyclobutyl-piperidin-4-yloxy)-phenyl]-3,4-diaza-bicyclo[4.2.0]oct-4-en-2-one]
Ki ([1]; Table B, read-out: rat H3 Ki): 0.1 to 100 nM | Ki (human H3 receptor; Table B): 0.1 to 100 nM

Structure (SMILES): Cn1nc(-c2ccc(OCC3CCN(C4CCC4)CC3)cc2)c2ccccc2c1=O [Example 64, 4-[4-(1-Cyclobutyl-piperidin-4-ylmethoxy)-phenyl]-2-methyl-2H-phthalazin-1-one]
Ki ([1]; Table A, read-out: Rat H3 Ki): 101 to 500 nM | Ki (human H3 receptor; Table A): 0.1 to 100 nM

Structure (SMILES): O=c1cc(-c2ccc(OC3CCN(C4CCC4)CC3)cc2)cn[nH]1 [Example 106, 5-[4-(1-Cyclobutyl-piperidin-4-yloxy)-phenyl]-2H-pyridazin-3-one]
Ki ([1]; Table B, read-out: rat H3 Ki): 0.1 to 100 nM | Ki (human H3 receptor; Table B): 0.1 to 100 nM

Structure (SMILES): Cn1nc(-c2ccc(OCCCN3CCCCC3)cc2)cc(Cc2ccccc2)c1=O [Example 46, 4-Benzyl-2-methyl-6-[4-(3-piperidin-1-yl-propoxy)-phenyl]-2H-pyridazin-3-one]
Ki ([1]; Table A, read-out: Rat H3 Ki): 101 to 500 nM | Ki (human H3 receptor; Table A): 0.1 to 100 nM

Structure (SMILES): O=C1CCC(c2ccc(OC3CCN(C4CCC4)CC3)cc2)=NN1c1ccccn1 [Example 158, 6-[4-(1-Cyclobutyl-piperidin-4-yloxy)phenyl]-2-pyridin-2-yl-4,5-dihydro-2H-pyridazin-3-one]
Ki ([1]; Table B, read-out: rat H3 Ki): 0.1 to 100 nM | Ki (human H3 receptor; Table B): 0.1 to 100 nM

Structure (SMILES): Cn1nc(-c2ccc(OCCCN3CCCCC3)cc2)c2ccccc2c1=O [Example 50, 2-Methyl-4-[4-(3-piperidin-1-yl-propoxy)-phenyl]-2H-phthalazin-1-one]
Ki ([1]; Table A, read-out: Rat H3 Ki): 0.1 to 100 nM | Ki (human H3 receptor; Table A): 0.1 to 100 nM

Structure (SMILES): COCn1ncc(-c2ccc(OC3CCN(C4CCC4)CC3)cc2C)cc1=O [Example 234, 5-[4-(1-Cyclobutyl-piperidin-4-yloxy)-2-methyl-phenyl]-2-methoxymethyl-2H-pyridazin-3-one]
Ki ([1]; Table B, read-out: rat H3 Ki): 0.1 to 100 nM | Ki (human H3 receptor; Table B): 0.1 to 100 nM

Structure (SMILES): O=c1c2ccsc2c(-c2ccc(OCCCN3CCCCC3)cc2)nn1Cc1ccc(Cl)cc1 [Example 37, 5-(4-Chloro-benzyl)-7-[4-(3-piperidin-1-yl-propoxy)-phenyl]-5H-thieno[2,3-d]pyridazin-4-one]
Ki ([1]; Table A, read-out: Rat H3 Ki): 101 to 500 nM | Ki (human H3 receptor; Table A): 0.1 to 100 nM

Structure (SMILES): CCCn1nc(-c2ccc(OCCCN3CCC(C)CC3)cc2)c2sccc2c1=O [Example 34, 7-{4-[3-(4-Methyl-piperidin-1-yl)-propoxy]-phenyl}-5-propyl-5H-thieno[2,3-d]pyridazin-4-one]
Ki ([1]; Table A, read-out: Rat H3 Ki): 0.1 to 100 nM | Ki (human H3 receptor; Table A): 0.1 to 100 nM

Structure (SMILES): CC1CC(c2ccc(OC3CCN(C4CCC4)CC3)cc2)=NNC1=O (stereo not drawn) [Example 116, 6-[4-(1-Cyclobutyl-piperidin-4-yloxy)-phenyl]-4-methyl-4,5-dihydro-2H-pyridazin-3-one]
Ki ([1]; Table B, read-out: rat H3 Ki): 0.1 to 100 nM | Ki (human H3 receptor; Table B): 0.1 to 100 nM

Structure (SMILES): CC(C)n1nc(-c2ccc(OCCCN3[C@H](C)CC[C@H]3C)cc2)c2sccc2c1=O [Example 31, 7-{4-[3-((2R,5R)-2,5-Dimethyl-pyrrolidin-1-yl)-propoxy]-phenyl}-5-isopropyl-5H-thieno[2,3-d]pyridazin-4-one]
Ki ([1]; Table A, read-out: Rat H3 Ki): 101 to 500 nM | Ki (human H3 receptor; Table A): 0.1 to 100 nM

Structure (SMILES): CCN(CC)CCCOc1ccc(-c2nn(C(C)C)c(=O)c3ccsc23)cc1 [Example 28, 7-[4-(3-Diethylamino-propoxy)-phenyl]-5-isopropyl-5H-thieno[2,3-d]pyridazin-4-one]
Ki ([1]; Table A, read-out: Rat H3 Ki): 101 to 500 nM | Ki (human H3 receptor; Table A): 0.1 to 100 nM

Structure (SMILES): CC(C)N1N=C(c2ccc(OCCCN3CCCCC3)cc2)CCC1=O [Example 4, 2-Isopropy1-6-[4-(3-piperidin-1-yl-propoxy)-phenyl]-4,5-dihydro-2H-pyridazin-3-one]
Ki ([1]; Table A, read-out: Rat H3 Ki): 0.1 to 100 nM | Ki (human H3 receptor; Table A): 0.1 to 100 nM

Structure (SMILES): Cn1nc(-c2cccc(OCCCN3CCCCC3)c2)c2c(c1=O)CCC2 [Example 126, 2-Methyl-4-[3-(3-piperidin-1-yl-propoxy)-phenyl]-2,5,6,7-tetrahydro-cyclopenta[d]pyridazin-1-one]
Ki ([1]; Table B, read-out: rat H3 Ki): 501 to 1000 nM | Ki (human H3 receptor; Table B): 101 to 500 nM

Structure (SMILES): Cc1cc(-c2ccc(OCCCN3CCC[C@H]3C)cc2)nn(C)c1=O [Example 40, 2,4-Dimethyl-6-{4-[3-((R)-2-methyl-pyrrolidin-1-yl)-propoxy]-phenyl}-2H-pyridazin-3-one]
Ki ([1]; Table A, read-out: Rat H3 Ki): 0.1 to 100 nM | Ki (human H3 receptor; Table A): 0.1 to 100 nM

Structure (SMILES): CC1CC(=O)NN=C1c1ccc(OCCCN2CCC[C@H]2C)cc1 (single isomer, unassigned) [Example 196]
Ki ([1]; Table B, read-out: rat H3 Ki): 0.1 to 100 nM | Ki (human H3 receptor; Table B): 0.1 to 100 nM

Structure (SMILES): O=c1cc(-c2ccc(OC3CCNCC3)cc2)cn[nH]1 [Example 105, 5-[4-(Piperidin-4-yloxy)-phenyl]-2H-pyridazin-3-one]
Ki ([1]; Table B, read-out: rat H3 Ki): > 1000 nM | Ki (human H3 receptor; Table B): > 1000 nM

Other lines, results leading:

Ki ([1]; Table A, read-out: Rat H3 Ki): 101 to 500 nM | Ki (human H3 receptor; Table A): 101 to 500 nM
Structure (SMILES): Cn1nc(-c2ccc(OCC3CCN(C4CCCC4)CC3)cc2)ccc1=O [Example 70, 6-[4-(1-Cyclopentyl-piperidin-4-ylmethoxy)-phenyl]-2-methyl-2H-pyridazin-3-one]

Ki ([1]; Table B, read-out: rat H3 Ki): 0.1 to 100 nM | Ki (human H3 receptor; Table B): 0.1 to 100 nM
Structure (SMILES): C[C@@H]1CCCN1CCCOc1ccc(C2=NNC(=O)C(c3ccccn3)C2)cc1 (stereo partly drawn) [Example 216, 6-{4-[3-((R)-2-Methyl-pyrrolidin-1-yl)-propoxy]-phenyl}-4-pyridin-2-yl-4,5-dihydro-2H-pyridazin-3-one]

Ki ([1]; Table B, read-out: rat H3 Ki): 0.1 to 100 nM | Ki (human H3 receptor; Table B): 0.1 to 100 nM
Structure (SMILES): C[C@@H]1CCCN1CCCOc1ccc2c(c1)CCc1n[nH]c(=O)cc1-2 [Example 218, 8-[3-((R)-2-Methyl-pyrrolidin-1-yl)-propoxy]-5,6-dihydro-3H-benzo[f]cinnolin-2-one]

Ki ([1]; Table B, read-out: rat H3 Ki): 0.1 to 100 nM | Ki (human H3 receptor; Table B): 0.1 to 100 nM
Structure (SMILES): O=c1ccc(-c2ccc(OC3CCN(C4CCCC4)CC3)nc2)n[nH]1 [Example 139, 6-[6-(1-Cyclopentyl-piperidin-4-yloxy)-pyridin-3-yl]-2H-pyridazin-3-one]

Ki ([1]; Table B, read-out: rat H3 Ki): 0.1 to 100 nM | Ki (human H3 receptor; Table B): 0.1 to 100 nM
Structure (SMILES): COCn1ncc(OC)c(-c2ccc(OCCCN3CCC[C@H]3C)cc2)c1=O [Example 236, 5-Methoxy-2-methoxymethyl-4-{4-[3-((R)-2-methyl-pyrrolidin-1-yl)-propoxy]-phenyl}-2H-pyridazin-3-one]

Ki ([1]; Table A, read-out: Rat H3 Ki): 0.1 to 100 nM | Ki (human H3 receptor; Table A): 0.1 to 100 nM
Structure (SMILES): CC(C)n1nc(-c2ccc(OCCCN3CCCC3)cc2)c2sccc2c1=O [Example 29, 5-Isopropyl-7-[4-(3-pyrrolidin-1-yl-propoxy)-phenyl]-5H-thieno[2,3-d]-pyridazin-4-one]

Ki ([1]; Table A, read-out: Rat H3 Ki): 0.1 to 100 nM | Ki ([1]; Table B, read-out: rat H3 Ki): 0.1 to 100 nM | Ki (human H3 receptor; Table A): 0.1 to 100 nM | Ki (human H3 receptor; Table B): 0.1 to 100 nM
Structure (SMILES): C[C@@H]1CCCN1CCCOc1ccc(-c2ccc(=O)n(-c3ccccc3)n2)cc1F [Example 81, 6-{3-Fluoro-4-[3-((R)-2-methyl-pyrrolidin-1-yl)-propoxy]-phenyl}-2-phenyl-2H-pyridazin-3-one]

Ki ([1]; Table B, read-out: rat H3 Ki): 0.1 to 100 nM | Ki (human H3 receptor; Table B): 0.1 to 100 nM
Structure (SMILES): CC(C)N1N=C(c2ccc(OC3CCN(C4CCC4)CC3)cc2)C2CC2C1=O (stereo not drawn) [Example 251, 5-[4-(1-Cyclobutyl-piperidin-4-yloxy)-phenyl]-3-isopropyl-3,4-diaza-bicyclo[4.1.0]hept-4-en-2-one]

Ki ([1]; Table B, read-out: rat H3 Ki): 0.1 to 100 nM | Ki (human H3 receptor; Table B): 0.1 to 100 nM
Structure (SMILES): O=C1CCC(c2ccc(OC3CCN(C4CCC4)CC3)cc2F)=NN1 [Example 219, 6-[4-(1-Cyclobutyl-piperidin-4-yloxy)-2-fluoro-phenyl]-4,5-dihydro-2H-pyridazin-3-one]

Ki ([1]; Table A, read-out: Rat H3 Ki): 0.1 to 100 nM | Ki (human H3 receptor; Table A): 0.1 to 100 nM
Structure (SMILES): CC(C)n1nc(-c2ccc(OCCCN3CCCCC3)cc2)c2sccc2c1=O [Example 24, 5-Isopropyl-7-[4-(3-piperidin-1-yl-propoxy)-phenyl]-5H-thieno[2,3-d]pyridazin-4-one]

Ki ([1]; Table B, read-out: rat H3 Ki): 0.1 to 100 nM | Ki (human H3 receptor; Table B): 0.1 to 100 nM
Structure (SMILES): C[C@H]1CCCN1CCCOc1ccc(-c2ccc(=O)[nH]n2)cc1 [Example 239, 6-{4-[3-((S)-2-Methyl-pyrrolidin-1-yl)-propoxy]-phenyl}-2H-pyridazin-3-one]

Ki ([1]; Table B, read-out: rat H3 Ki): 501 to 1000 nM | Ki (human H3 receptor; Table B): 501 to 1000 nM
Structure (SMILES): Cn1nc(-c2cccc(OCCCN3CCC[C@H]3CO)c2)c2c(c1=O)CCC2 [Example 127, 4-{3-[3-((S)-2-Hydroxymethyl-pyrrolidin-1-yl)-propoxy]-phenyl}-2-methyl-2,5,6,7-tetrahydro-cyclopenta[d]pyridazin-1-one]

Ki ([1]; Table A, read-out: Rat H3 Ki): 0.1 to 100 nM | Ki (human H3 receptor; Table A): 0.1 to 100 nM
Structure (SMILES): CC(C)n1nc(-c2ccc(OCCCN3CCC[C@H]3C)cc2)c2sccc2c1=O [Example 22, 5-Isopropyl-7-{4-[3-((R)-2-methyl-pyrrolidin-1-yl)-propoxy]-phenyl}-5H-thieno[2,3-d]pyridazin-4-one]
